# Test results published in patent US5536750A, “Inhibitors of farnesyl-protein transferase” (Merck & Co., Inc., priority 1994, dated 1996).
# Legend:
# [1] = tested on: Ras farnesylation (viral Ha-ras p21) in the v-ras cell line; experiment: In vivo ras farnesylation assay in the v-ras cell line; type: cell-based; details: v-ras cells; 4 hours at 37° C. then additional 20 hours with [35S]methionine; read-out: IC50, inhibition of Ras farnesylation in the v-ras cell line
# Experimental: The cell line used in this assay was the v-ras line, which expressed viral Ha-ras p21. The assay was performed essentially as described in DeClue, J. E. et. al., Cancer Research 51:712-717, (1991). Cells in 10 cm dishes at 50-75% confluency were treated with the test s compound (final concentration of solvent, methanol or dimethyl sulfoxide, was 0.1%). After 4 hours at 37° C., the cells were labelled in 3 ml methionine-free DMEM supplemented with 10% regular DMEM, 2% fetal bovine serum and 400 μCi[^35 S]methionine (1000 Ci/mmol). After an additional 20 hours, the cells were lysed in 1 ml lysis buffer (1% NP40/20 mM HEPES, pH 7.5/5 mM MgCl2 /1 mM DTT/10 μg/ml aprotinen/2 μg/ml leupeptin/2 μg/ml antipain/0.5 mM PMSF) and the lysates cleared by centrifugation at 100,000 × g for 45 min. Aliqouts of lysates containing equal numbers of acid-precipitable counts were bought to 1 ml with IP buffer (lysis buffer lacking DTT) and immunoprecipitated with the ras-specific monoclonal antibody Y13-259 (Furth, M. E. et. al., J. Virol. 43:294-304, (1982)). Following a 2 hour antibody incubation at 4° C., […] of a 25% suspension of protein A-Sepharose coated with rabbit anti rat IgG was added for 45 min. […]
# Bovine FPTase = target: T1, Bovine FPTase (Bos taurus, UniProt P29702+P49355); experiment: In vitro inhibition of ras farnesyl transferase, partially purified bovine FPTase, Ras-CVLS and [3H]-FPP; type: biochemical; details: 650 nM Ras-CVLS, pH 7.4, 31° C., 60 min, read-out: IC50, inhibition of RAS farnesylation (concentration giving 50% inhibition of FTase)
# T1 construct: Partially purified bovine FPTase; from tissue
# Experimental: Assays of farnesyl-protein transferase. Partially purified bovine FPTase and Ras peptides (Ras-CVLS, Ras-CVIM and RAS-CAIL) were prepared as described by Schaber et al., J. Biol. Chem. 265:14701-14704 (1990), Pompliano, et al., Biochemistry 31:3800 (1992) and Gibbs et at., PNAS U.S.A. 86:6630-6634 (1989), respectively. Bovine FPTase was assayed in a volume of 100 μl containing 100 mM N-(2-hydroxy ethyl) piperazine-N'-(2-ethane sulfonic acid) (HEPES), pH 7.4, 5 mM MgCl2, 5 mM dithiothreitol (DTT), […] [^3 H]-farnesyl diphosphate ([^3 H]-FPP; […], New England Nuclear), 650 nM Ras-CVLS and 10 μg/ml FPTase at 31° C. for 60 min. Reactions were initiated with FPTase and stopped with 1 ml of 1.0M HCL in ethanol. Precipitates were collected onto filter-mats using a TomTec Mach II cell harvestor, washed with 100% ethanol, dried and counted in an LKB β-plate counter. The assay was linear with respect to both substrates, FPTase levels and time; less than 10% of the [ ^3 H]-FPP was utilized during the reaction period. Purified compounds were dissolved in 100% dimethyl sulfoxide (DMSO) and were diluted 20-fold into the assay. Percentage inhibition is measured by the amount of incorporation of farnesyl in the presence of the test compound when compared to the amount of incorporation in the absence of the test compound.
# Human FPTase = target: T2, Human FPTase (Homo sapiens, UniProt P49354+P49356); experiment: In vitro inhibition of ras farnesyl transferase, recombinant human FPTase, Ras-CVIM and [3H]-FPP; type: biochemical; details: 100 nM Ras-CVIM, 30 min, read-out: IC50, inhibition of RAS farnesylation (concentration giving 50% inhibition of FTase)
# T2 construct: made in house
# Ras farnesylation = details: Hancock et al., Casey et al., Schafer et al.; cited from earlier work
Compound,IC50 [1],Inhibition of Ras farnesylation in vivo (Ras farnesylation),other results
CC[C@H](C)[C@@H](C(=O)N[C@H]1CCOC1=O)N(C)C[C@@H](NC[C@@H](N)CS)[C@@H](C)CC [N-[2(S)-(2(R)-Amino-3-mercaptopropylamino)-3(S)-methylpentyl]-N-methyl-isoleucyl-homoserine lactone],50000 nM,–,–
CC[C@H](C)[C@@H](C(=O)N[C@@H](CCO)C(=O)O)N(C)C[C@@H](NC[C@@H](N)CS)[C@@H](C)CC [N-[2(S)-(2(R)-Amino-3-mercaptopropylamino)-3(S)-methylpentyl]-N-methyl-isoleucyl-homoserine],–,–,IC50 (Bovine FPTase): 72 nM
CC[C@H](C)[C@@H](C(=O)N[C@@H](CCSC)C(=O)OC)N(C)C[C@@H](NC[C@@H](N)CS)[C@@H](C)CC [N-[2(S)-(2(R)-amino-3-mercaptopropylamino)-3(S)-methyl-pentyl]-N-methyl-isoleucyl-methionine methyl ester],5000 nM,–,–
CC[C@H](C)[C@@H](C(=O)N[C@@H](CCSC)C(=O)O)N(C)C[C@@H](NC[C@@H](N)CS)[C@@H](C)CC [N-[2(S)-(2(R)-amino-3-mercaptopropylamino)-3(S)-methyl-pentyl]-N-methyl-isoleucyl-methionine],–,–,IC50 (Human FPTase): 20 nM
CC[C@H](C)C(=O)O[C@H]1CCC=C2C=C[C@H](C)[C@H](CC[C@@H]3C[C@@H](O)CC(=O)O3)[C@H]21 [compactin],–,Inhibition of Ras farnesylation in vivo has been demonstrated,–
CC[C@H](C)C(=O)O[C@H]1C[C@@H](C)C=C2C=C[C@H](C)[C@H](CC[C@@H]3C[C@@H](O)CC(=O)O3)[C@H]21 [lovastatin],–,Inhibition of Ras farnesylation in vivo has been demonstrated,–
